Test results taken from patent publication US20230293407A1, “Compositions Comprising (Bio)-Alkanediols with Antimicrobials for Product Protection” (Symrise AG, priority 2020, published 2023).

Experiments:
Assay in all cases: preservation efficacy test (PET), European Pharmacopoeia 5.1.3
Type in all cases: cell-based
[1] = test system: Aspergillus brasiliensis; conditions: for count at 2 days / count at 7 days / count at 14 days / count at 28 days: AB, use concentration in label
[2] = test system: Staphylococcus aureus; conditions: for count at 2 days / count at 7 days / count at 14 days / count at 28 days: SA, use concentration in label
[3] = test system: Escherichia coli; conditions: for count at 2 days / count at 7 days / count at 14 days / count at 28 days: EC, use concentration in label; for number of microorganisms, 2 days / number of microorganisms, 7 days / number of microorganisms, 14 days / number of microorganisms, 28 days: PET, Escherichia coli (EC)
[4] = test system: Candida albicans; conditions: for count at 2 days / count at 7 days / count at 14 days / count at 28 days: CA, use concentration in label
[5] = test system: Pseudomonas aeruginosa; conditions: for count at 2 days / count at 7 days / count at 14 days / count at 28 days: PA, use concentration in label; for number of microorganisms, 2 days / number of microorganisms, 7 days / number of microorganisms, 14 days / number of microorganisms, 28 days: PET, Pseudomonas aeruginosa (PA)
[6] = PET, Staphylococcus aureus (SA), 7 days after inoculation
[7] = PET, Staphylococcus aureus (SA), 14 days after inoculation
[8] = PET, Staphylococcus aureus (SA), 28 days after inoculation
[9] = PET, Candida albicans (CA), 7 days after inoculation
[10] = PET, Candida albicans (CA), 14 days after inoculation
[11] = PET, Candida albicans (CA), 28 days after inoculation
[12] = 28 days after inoculation, substance at given % in test formulation, listed as 0.1% 4-Hydroxyacetophenone
[13] = 7 days after inoculation, o/w emulsion (Table 53)
[14] = 7 days after inoculation, substance at given % in test formulation, listed as 0.1% 4-Hydroxyacetophenone
[15] = 14 days after inoculation, o/w emulsion (Table 53)
[16] = 28 days after inoculation, o/w emulsion (Table 53)
[17] = 2 days after inoculation, o/w emulsion (Table 53)
[18] = 14 days after inoculation, substance at given % in test formulation, listed as 0.1% 4-Hydroxyacetophenone

CC(=O)CCC(=O)O [0.4% Levulinic Acid]
count at 2 days ([1]; 2 days after inoculation): 710.000 | count at 7 days ([1]; 7 days after inoculation): 440.000 | count at 14 days ([1]; 14 days after inoculation): 390.000 | count at 28 days ([1]; 28 days after inoculation): 120.000 | count at 2 days ([2]; 2 days after inoculation): 45.000 | count at 7 days ([2]; 7 days after inoculation): 1 | count at 14 days ([2]; 14 days after inoculation): 1 | count at 28 days ([2]; 28 days after inoculation): 1 | count at 2 days ([3]; 2 days after inoculation): 310 | count at 7 days ([3]; 7 days after inoculation): 1 | count at 14 days ([3]; 14 days after inoculation): 1 | count at 28 days ([3]; 28 days after inoculation): 1 | count at 2 days ([4]; 2 days after inoculation): 240.000 | count at 7 days ([4]; 7 days after inoculation): 220.000 | count at 14 days ([4]; 14 days after inoculation): 240.000 | count at 28 days ([4]; 28 days after inoculation): 38.000 | count at 2 days ([5]; 2 days after inoculation): 1 | count at 7 days ([5]; 7 days after inoculation): 1 | count at 14 days ([5]; 14 days after inoculation): 1 | count at 28 days ([5]; 28 days after inoculation): 1

OCCCO [0.8% 1,3-propanediol]
count at 2 days ([1]; 2 days after inoculation): 900.000 | count at 7 days ([1]; 7 days after inoculation): 650.000 | count at 14 days ([1]; 14 days after inoculation): 270.000 | count at 28 days ([1]; 28 days after inoculation): 380 | count at 2 days ([2]; 2 days after inoculation): 180.000 | count at 7 days ([2]; 7 days after inoculation): 58.000 | count at 14 days ([2]; 14 days after inoculation): 820 | count at 28 days ([2]; 28 days after inoculation): 1 | count at 2 days ([3]; 2 days after inoculation): 350.000 | count at 7 days ([3]; 7 days after inoculation): 74.000 | count at 14 days ([3]; 14 days after inoculation): 4.100 | count at 28 days ([3]; 28 days after inoculation): 1 | count at 7 days ([4]; 7 days after inoculation): 650.000 | count at 14 days ([4]; 14 days after inoculation): 630.000 | count at 28 days ([4]; 28 days after inoculation): 1 | count at 2 days ([5]; 2 days after inoculation): 290 | count at 7 days ([5]; 7 days after inoculation): 200 | count at 14 days ([5]; 14 days after inoculation): 180 | count at 28 days ([5]; 28 days after inoculation): 1

COc1ccc(C(=O)O)cc1 [anisic acid, reference compound]
number of microorganisms, 2 days ([1]; PET, Aspergillus brasiliensis (AB), 2 days after inoculation): 650.000 | number of microorganisms, 7 days ([1]; PET, Aspergillus brasiliensis (AB), 7 days after inoculation): 360.000 | number of microorganisms, 14 days ([1]; PET, Aspergillus brasiliensis (AB), 14 days after inoculation): 1 | number of microorganisms, 28 days ([1]; PET, Aspergillus brasiliensis (AB), 28 days after inoculation): 1 | number of microorganisms, 2 days ([2]; PET, Staphylococcus aureus (SA), 2 days after inoculation): 1 | number of microorganisms, 7 days [2, 6]: 1 | number of microorganisms, 14 days [2, 7]: 1 | number of microorganisms, 28 days [2, 8]: 1 | number of microorganisms, 2 days ([3]; 2 days after inoculation): 1 | number of microorganisms, 7 days ([3]; 7 days after inoculation): 1 | number of microorganisms, 14 days ([3]; 14 days after inoculation): 1 | number of microorganisms, 28 days ([3]; 28 days after inoculation): 1 | number of microorganisms, 2 days ([4]; PET, Candida albicans (CA), 2 days after inoculation): 7.000 | number of microorganisms, 7 days [4, 9]: 9.000 | number of microorganisms, 14 days [4, 10]: 1 | number of microorganisms, 28 days [4, 11]: 1 | number of microorganisms, 2 days ([5]; 2 days after inoculation): 1 | number of microorganisms, 7 days ([5]; 7 days after inoculation): 1 | number of microorganisms, 14 days ([5]; 14 days after inoculation): 1 | number of microorganisms, 28 days ([5]; 28 days after inoculation): 1

CC(O)C(=O)[O-].[Na+] (stereo not shown) [0.8% sodium lactate (50%)]
count at 2 days ([1]; 2 days after inoculation): 910.000 | count at 7 days ([1]; 7 days after inoculation): 730.000 | count at 14 days ([1]; 14 days after inoculation): 440.000 | count at 28 days ([1]; 28 days after inoculation): 190.000 | count at 2 days ([2]; 2 days after inoculation): 190.000 | count at 7 days ([2]; 7 days after inoculation): 150.000 | count at 14 days ([2]; 14 days after inoculation): 170.000 | count at 28 days ([2]; 28 days after inoculation): 18.000 | count at 2 days ([3]; 2 days after inoculation): 440.000 | count at 7 days ([3]; 7 days after inoculation): 210.000 | count at 14 days ([3]; 14 days after inoculation): 210.000 | count at 28 days ([3]; 28 days after inoculation): 850 | count at 2 days ([4]; 2 days after inoculation): 930.000 | count at 7 days ([4]; 7 days after inoculation): 800.000 | count at 14 days ([4]; 14 days after inoculation): 890.000 | count at 28 days ([4]; 28 days after inoculation): 260.000 | count at 2 days ([5]; 2 days after inoculation): 1 | count at 7 days ([5]; 7 days after inoculation): 1 | count at 14 days ([5]; 14 days after inoculation): 1 | count at 28 days ([5]; 28 days after inoculation): 1

CC(=O)c1ccc(O)cc1 [4-Hydroxyacetophenone, reference compound]
AB germ count, 28 days [1, 12]: 910.000 | germ count SA, 7 days [2, 13]: 24.000 | SA germ count, 7 days [2, 14]: 78.000 | germ count SA, 14 days [2, 15]: 1 | germ count SA, 28 days [2, 16]: 1 | number of microorganisms, 7 days [2, 6]: 24.000 | number of microorganisms, 14 days [2, 7]: 1 | number of microorganisms, 28 days [2, 8]: 1 | germ count EC, 2 days [3, 17]: 110.000 | EC germ count, 2 days ([3]; 2 days after inoculation, substance at given % in test formulation, listed as 0.1% 4-Hydroxyacetophenone): 110.000 | germ count EC, 7 days [3, 13]: 290 | EC germ count, 7 days [3, 14]: 36 | germ count EC, 14 days [3, 15]: 27 | EC germ count, 14 days [3, 18]: 1 | germ count EC, 28 days [3, 16]: 1 | number of microorganisms, 2 days ([3]; 2 days after inoculation): 110.000 | number of microorganisms, 7 days ([3]; 7 days after inoculation): 290 | number of microorganisms, 14 days ([3]; 14 days after inoculation): 27 | number of microorganisms, 28 days ([3]; 28 days after inoculation): 1 | germ count CA, 7 days [4, 13]: 170.000 | CA germ count, 7 days [4, 14]: 310.000 | germ count CA, 14 days [4, 15]: 130.000 | CA germ count, 14 days [4, 18]: 190.000 | germ count CA, 28 days [4, 16]: 55.000 | CA germ count, 28 days [4, 12]: 100.000 | number of microorganisms, 7 days [4, 9]: 170.000 | number of microorganisms, 14 days [4, 10]: 130.000 | number of microorganisms, 28 days [4, 11]: 55.000 | germ count PA, 2 days [5, 17]: 1 | germ count PA, 7 days [5, 13]: 1 | germ count PA, 14 days [5, 15]: 1 | germ count PA, 28 days [5, 16]: 1 | number of microorganisms, 2 days ([5]; 2 days after inoculation): 1 | number of microorganisms, 7 days ([5]; 7 days after inoculation): 1 | number of microorganisms, 14 days ([5]; 14 days after inoculation): 1 | number of microorganisms, 28 days ([5]; 28 days after inoculation): 1
